Experimental data taken from patent US4229204A, “Trifluoromethylphenyl isoxazolyl benzoates” (Monsanto Company, priority 1978, dated 1980).

What was measured:
Type in all cases: in vivo
Wild Buckwheat [1] = assay: Post-emergent herbicidal test; settings: 4 WAT; also: ranges in brackets are in %
Protocol: (§1) The post-emergent tests were conducted as follows:
(§2) The active ingredients are applied in spray form to two or three week old specimens of various plant species. The spray, a solution or wettable powder suspension containing the appropriate rate of active ingredient to give the desired test rate and a surfactant, is applied to the plants.

Hemp Sesbania [2] = assay: Post-emergent herbicidal test; settings: 4 WAT; also: ranges in brackets are in %
Protocol: as §1, §2

Rice [3] = assay: Post-emergent herbicidal test; settings: 4 WAT; also: ranges in brackets are in %
Protocol: as §1, §2

Wheat [4] = assay: Post-emergent herbicidal test; settings: 4 WAT; also: ranges in brackets are in %
Protocol: as §1, §2

Sugarbeet [5] = assay: Post-emergent herbicidal test; settings: 4 WAT; also: ranges in brackets are in %
Protocol: as §1, §2

Panicum Spp. [6] = assay: Post-emergent herbicidal test; settings: 4 WAT; also: ranges in brackets are in %
Protocol: as §1, §2

Crabgrass [7] = assay: Post-emergent herbicidal test; settings: 4 WAT; also: ranges in brackets are in %
Protocol: as §1, §2

Soybean [8] = assay: Post-emergent herbicidal test; settings: 4 WAT; also: ranges in brackets are in %
Protocol: as §1, §2

Sorghum [9] = assay: Post-emergent herbicidal test; settings: 4 WAT; also: ranges in brackets are in %
Protocol: as §1, §2

Morningglory [10] = assay: Post-emergent herbicidal test; settings: 4 WAT; also: ranges in brackets are in %
Protocol: as §1, §2
(§3) The compounds were also tested by utilizing the above procedure on the following plant species: […]

Barnyardgrass [11] = assay: Post-emergent herbicidal test; settings: 4 WAT; also: ranges in brackets are in %
Protocol: as §1, §2, §3

Smartweed [12] = assay: Post-emergent herbicidal test; settings: 4 WAT; also: ranges in brackets are in %
Protocol: as §1, §2, §3

Canada Thistle [13] = assay: Post-emergent herbicidal test; settings: 4 WAT, 11.2 kg/h; also: ranges in brackets are in %
Protocol: as §1, §2, §3

Yellow Nutsedge [14] = assay: Post-emergent herbicidal test; settings: 4 WAT, 11.2 kg/h; also: ranges in brackets are in %
Protocol: as §1, §2, §3

Johnsongrass [15] = assay: Post-emergent herbicidal test; settings: 4 WAT, 11.2 kg/h; also: ranges in brackets are in %
Protocol: as §1, §2, §3

Downy Brome [16] = assay: Post-emergent herbicidal test; settings: 4 WAT; also: ranges in brackets are in %
Protocol: as §1, §2, §3

Cocklebur [17] = assay: Post-emergent herbicidal test; settings: 4 WAT; also: ranges in brackets are in %
Protocol: as §1, §2, §3

Quackgrass [18] = assay: Post-emergent herbicidal test; settings: 4 WAT, 11.2 kg/h; also: ranges in brackets are in %
Protocol: as §1, §2, §3

Velvetleaf [19] = assay: Post-emergent herbicidal test; settings: 4 WAT; also: ranges in brackets are in %
Protocol: as §1, §2, §3

Lambsquarters [20] = assay: Post-emergent herbicidal test; settings: 4 WAT; also: ranges in brackets are in %
Protocol: as §1, §2, §3

Morningglory [21] = assay: Pre-emergent herbicidal test; settings: 4 WAT; also: ranges in brackets are in %
Protocol: (§4) The pre-emergent test was conducted as follows:
(§5) A good grade of top soil was placed in aluminum pans and compacted to a depth of three-eighths to one-half inch from the top of the pan. On the top of the soil was placed a predetermined number of seeds or vegetative propagules of various plant species which were pressed into the soil surface. The soil required to level fill the pans after seeding or adding vegetative propagules was weighed into a pan. A known amount of the active ingredient applied in a solvent or as a wettable powder and the soil were thoroughly mixed, and used as a cover layer for prepared pans.
(§6) The herbicidal rating was obtained by means of a fixed scale based on the percent injury of each plant species. The ratings are defined as follows: […]
as §3

Barnyardgrass [22] = assay: Pre-emergent herbicidal test; settings: 4 WAT; also: ranges in brackets are in %
Protocol: as §4, §5, §6, §3

Smartweed [23] = assay: Pre-emergent herbicidal test; settings: 4 WAT; also: ranges in brackets are in %
Protocol: as §4, §5, §6, §3

Canada Thistle [24] = assay: Pre-emergent herbicidal test; settings: 4 WAT, 11.2 kg/h; also: ranges in brackets are in %
Protocol: as §4, §5, §6, §3

Yellow Nutsedge [25] = assay: Pre-emergent herbicidal test; settings: 4 WAT, 11.2 kg/h; also: ranges in brackets are in %
Protocol: as §4, §5, §6, §3

Johnsongrass [26] = assay: Pre-emergent herbicidal test; settings: 4 WAT, 11.2 kg/h; also: ranges in brackets are in %
Protocol: as §4, §5, §6, §3

Downy Brome [27] = assay: Pre-emergent herbicidal test; settings: 4 WAT; also: ranges in brackets are in %
Protocol: as §4, §5, §6, §3

Cocklebur [28] = assay: Pre-emergent herbicidal test; settings: 4 WAT; also: ranges in brackets are in %
Protocol: as §4, §5, §6, §3

Quackgrass [29] = assay: Pre-emergent herbicidal test; settings: 4 WAT, 11.2 kg/h; also: ranges in brackets are in %
Protocol: as §4, §5, §6, §3

Velvetleaf [30] = assay: Pre-emergent herbicidal test; settings: 4 WAT; also: ranges in brackets are in %
Protocol: as §4, §5, §6, §3

Lambsquarters [31] = assay: Pre-emergent herbicidal test; settings: 4 WAT; also: ranges in brackets are in %
Protocol: as §4, §5, §6, §3

Wild Buckwheat [32] = assay: Pre-emergent herbicidal test; settings: 4 WAT; also: ranges in brackets are in %
Protocol: as §4, §5, §6

Hemp Sesbania [33] = assay: Pre-emergent herbicidal test; settings: 4 WAT; also: ranges in brackets are in %
Protocol: as §4, §5, §6

Rice [34] = assay: Pre-emergent herbicidal test; settings: 4 WAT; also: ranges in brackets are in %
Protocol: as §4, §5, §6

Wheat [35] = assay: Pre-emergent herbicidal test; settings: 4 WAT; also: ranges in brackets are in %
Protocol: as §4, §5, §6

Sugarbeet [36] = assay: Pre-emergent herbicidal test; settings: 4 WAT; also: ranges in brackets are in %
Protocol: as §4, §5, §6

Panicum Spp. [37] = assay: Pre-emergent herbicidal test; settings: 4 WAT; also: ranges in brackets are in %
Protocol: as §4, §5, §6

Crabgrass [38] = assay: Pre-emergent herbicidal test; settings: 4 WAT; also: ranges in brackets are in %
Protocol: as §4, §5, §6

Soybean [39] = assay: Pre-emergent herbicidal test; settings: 4 WAT; also: ranges in brackets are in %
Protocol: as §4, §5, §6

Sorghum [40] = assay: Pre-emergent herbicidal test; settings: 4 WAT; also: ranges in brackets are in %
Protocol: as §4, §5, §6

corn = assay: Growth regulation of corn (dipping); settings: 1330 ppm

For “Ethyl 2-[3-[3-(Trifluoromethyl)Phenyl]-5-Isoxazolyl]Benzoate [Example 4]”, the herbicidal rating (Wild Buckwheat [1]; 1.12 kg/h) was 2 (50-74), the herbicidal rating (Wild Buckwheat [1]; 5.60 kg/h) was 2 (50-74) and the herbicidal rating (Hemp Sesbania [2]; 1.12 kg/h) was 2 (50-74). The herbicidal rating (Hemp Sesbania [2]; 5.60 kg/h) was 2 (50-74), the herbicidal rating (Rice [3]; 1.12 kg/h) was 1 (25-49) and the herbicidal rating (Rice [3]; 5.60 kg/h) was 1 (25-49). For the same substance, the herbicidal rating (Wheat [4]; 1.12 kg/h) was 0 (0-24), the herbicidal rating (Wheat [4]; 5.60 kg/h) was 1 (25-49) and the herbicidal rating (Sugarbeet [5]; 1.12 kg/h) was 1 (25-49). The herbicidal rating (Sugarbeet [5]; 5.60 kg/h) was 2 (50-74), the herbicidal rating (Panicum Spp. [6]; 1.12 kg/h) was 0 (0-24) and the herbicidal rating (Panicum Spp. [6]; 5.60 kg/h) was 1 (25-49). The herbicidal rating (Crabgrass [7]; 1.12 kg/h) was 1 (25-49), the herbicidal rating (Crabgrass [7]; 5.60 kg/h) was 2 (50-74) and the herbicidal rating (Soybean [8]; 1.12 kg/h) was 2 (50-74). The herbicidal rating (Soybean [8]; 5.60 kg/h) was 2 (50-74), the herbicidal rating (Sorghum [9]; 1.12 kg/h) was 1 (25-49) and the herbicidal rating (Sorghum [9]; 5.60 kg/h) was 2 (50-74). For the same substance, the herbicidal rating (Morningglory [10]; 1.12 kg/h) was 2 (50-74), the herbicidal rating (Morningglory [10]; 5.60 kg/h) was 2 (50-74) and the herbicidal rating (Morningglory [10]; 11.2 kg/h) was 2 (50-74). For the same substance, the herbicidal rating (Barnyardgrass [11]; 1.12 kg/h) was 2 (50-74), the herbicidal rating (Barnyardgrass [11]; 5.60 kg/h) was 3 (75-99) and the herbicidal rating (Barnyardgrass [11]; 11.2 kg/h) was 3 (75-99). For the same substance, the herbicidal rating (Smartweed [12]; 1.12 kg/h) was 2 (50-74), the herbicidal rating (Smartweed [12]; 5.60 kg/h) was 4 (100) and the herbicidal rating (Smartweed [12]; 11.2 kg/h) was 2 (50-74). For the same substance, the herbicidal rating (Canada Thistle [13]) was 2 (50-74), the herbicidal rating (Yellow Nutsedge [14]) was 1 (25-49) and the herbicidal rating (Johnsongrass [15]) was 1 (25-49). For the same substance, the herbicidal rating (Downy Brome [16]; 1.12 kg/h) was 0 (0-24), the herbicidal rating (Downy Brome [16]; 5.60 kg/h) was 0 (0-24) and the herbicidal rating (Downy Brome [16]; 11.2 kg/h) was 0 (0-24). For the same substance, the herbicidal rating (Cocklebur [17]; 1.12 kg/h) was 2 (50-74), the herbicidal rating (Cocklebur [17]; 5.60 kg/h) was 2 (50-74) and the herbicidal rating (Cocklebur [17]; 11.2 kg/h) was 1 (25-49). For the same substance, the herbicidal rating (Quackgrass [18]) was 1 (25-49), the herbicidal rating (Velvetleaf [19]; 1.12 kg/h) was 2 (50-74) and the herbicidal rating (Velvetleaf [19]; 5.60 kg/h) was 1 (25-49). For the same substance, the herbicidal rating (Velvetleaf [19]; 11.2 kg/h) was 2 (50-74), the herbicidal rating (Lambsquarters [20]; 1.12 kg/h) was 1 (25-49) and the herbicidal rating (Lambsquarters [20]; 5.60 kg/h) was 2 (50-74). For the same substance, the herbicidal rating (Lambsquarters [20]; 11.2 kg/h) was 3 (75-99), the herbicidal rating (Morningglory [21]; 1.12 kg/h) was 2 (50-74) and the herbicidal rating (Morningglory [21]; 5.60 kg/h) was 3 (75-100). The herbicidal rating (Morningglory [21]; 11.2 kg/h) was 2 (50-74), the herbicidal rating (Barnyardgrass [22]; 1.12 kg/h) was 3 (75-100) and the herbicidal rating (Barnyardgrass [22]; 5.60 kg/h) was 3 (75-100). For the same substance, the herbicidal rating (Barnyardgrass [22]; 11.2 kg/h) was 3 (75-100), the herbicidal rating (Smartweed [23]; 1.12 kg/h) was 3 (75-100) and the herbicidal rating (Smartweed [23]; 5.60 kg/h) was 3 (75-100). For the same substance, the herbicidal rating (Smartweed [23]; 11.2 kg/h) was 2 (50-74), the herbicidal rating (Canada Thistle [24]) was 2 (50-74) and the herbicidal rating (Yellow Nutsedge [25]) was 0 (0-24). The herbicidal rating (Johnsongrass [26]) was 0 (0-24), the herbicidal rating (Downy Brome [27]; 1.12 kg/h) was 1 (25-49) and the herbicidal rating (Downy Brome [27]; 5.60 kg/h) was 2 (50-74). The herbicidal rating (Downy Brome [27]; 11.2 kg/h) was 2 (50-74), the herbicidal rating (Cocklebur [28]; 1.12 kg/h) was 0 (0-24) and the herbicidal rating (Cocklebur [28]; 5.60 kg/h) was 1 (25-49). The herbicidal rating (Cocklebur [28]; 11.2 kg/h) was 1 (25-49), the herbicidal rating (Quackgrass [29]) was 2 (50-74) and the herbicidal rating (Velvetleaf [30]; 1.12 kg/h) was 0 (0-24). For the same substance, the herbicidal rating (Velvetleaf [30]; 5.60 kg/h) was 1 (25-49), the herbicidal rating (Velvetleaf [30]; 11.2 kg/h) was 2 (50-74) and the herbicidal rating (Lambsquarters [31]; 1.12 kg/h) was 3 (75-100). For the same substance, the herbicidal rating (Lambsquarters [31]; 5.60 kg/h) was 2 (50-74), the herbicidal rating (Lambsquarters [31]; 11.2 kg/h) was 2 (50-74) and the herbicidal rating (Wild Buckwheat [32]; 1.12 kg/h) was 2 (50-74). The herbicidal rating (Wild Buckwheat [32]; 5.60 kg/h) was 2 (50-74), the herbicidal rating (Hemp Sesbania [33]; 1.12 kg/h) was 1 (25-49) and the herbicidal rating (Hemp Sesbania [33]; 5.60 kg/h) was 2 (50-74). For the same substance, the herbicidal rating (Rice [34]; 1.12 kg/h) was 3 (75-100), the herbicidal rating (Rice [34]; 5.60 kg/h) was 3 (75-100) and the herbicidal rating (Wheat [35]; 1.12 kg/h) was 0 (0-24). The herbicidal rating (Wheat [35]; 5.60 kg/h) was 1 (25-49), the herbicidal rating (Sugarbeet [36]; 1.12 kg/h) was 1 (25-49) and the herbicidal rating (Sugarbeet [36]; 5.60 kg/h) was 2 (50-74). The herbicidal rating (Panicum Spp. [37]; 1.12 kg/h) was 2 (50-74), the herbicidal rating (Panicum Spp. [37]; 5.60 kg/h) was 3 (75-100) and the herbicidal rating (Crabgrass [38]; 1.12 kg/h) was 1 (25-49). For the same substance, the herbicidal rating (Crabgrass [38]; 5.60 kg/h) was 3 (75-100), the herbicidal rating (Soybean [39]; 1.12 kg/h) was 1 (25-49) and the herbicidal rating (Soybean [39]; 5.60 kg/h) was 3 (75-100). The herbicidal rating (Sorghum [40]; 1.12 kg/h) was 2 (50-74), the herbicidal rating (Sorghum [40]; 5.60 kg/h) was 3 (75-100) and the Observations (corn) was “reduction in stature and "buggy whipping" of the leaves”.
